Literature values as cited in patent US20130267590A1, “RETIGABINE COMPOSITIONS” (Dr. Reddy's Laboratories Limited, priority 2011, published 2013).
Where a name gives a salt, the structure may show the parent alone.

Key:
[1] = test system: KCNQ (Kv7.2 to 7.5) family of ion channels; conditions: in vitro

| SMILES | storage stability (medium to long-term storage at −18° C.) | oxidation stability (contact with air) | effect on transmembrane potassium currents mediated by KCNQ channels [1] |
| --- | --- | --- | --- |
| CCOC(=O)Nc1ccc(NCc2ccc(F)cc2)cc1N [dihydrochloride salt of retigabine] | unstable | – | – |
| CCOC(=O)Nc1ccc(NCc2ccc(F)cc2)cc1N [retigabine, ethyl 2-amino-4-(4-fluorobenzylamino) phenylcarbamate] | – | oxidize upon contact with air | enhances transmembrane potassium currents |
